This note sets out measurements from patent publication JPH10251228A, “ニューロキニンアンタゴニストとしてのピペリジン誘導体” (Schering Plough Corp, priority 1997, dated 1998).

Test [1] has as its target T1, human NK-1 receptor (ヒトNK-1レセプター) (Homo sapiens, UniProt P25103).
T1 construct: expressed in transfected cells; host or cells: Chinese hamster ovary (CHO) cells, G418-selected; membranes prepared
The test is described as follows: Neurokinin receptor binding assay, human NK1 ([3H]-substance P displacement, transfected CHO cell membranes).

Test [2] concerns the target T2, human NK-2 receptor (ヒトNK-2レセプター) (Homo sapiens, UniProt P21452).
T2 construct: expressed in transfected cells; host or cells: Chinese hamster ovary (CHO) cells, G418-selected; membranes prepared
T2 sequence (P21452 1-398): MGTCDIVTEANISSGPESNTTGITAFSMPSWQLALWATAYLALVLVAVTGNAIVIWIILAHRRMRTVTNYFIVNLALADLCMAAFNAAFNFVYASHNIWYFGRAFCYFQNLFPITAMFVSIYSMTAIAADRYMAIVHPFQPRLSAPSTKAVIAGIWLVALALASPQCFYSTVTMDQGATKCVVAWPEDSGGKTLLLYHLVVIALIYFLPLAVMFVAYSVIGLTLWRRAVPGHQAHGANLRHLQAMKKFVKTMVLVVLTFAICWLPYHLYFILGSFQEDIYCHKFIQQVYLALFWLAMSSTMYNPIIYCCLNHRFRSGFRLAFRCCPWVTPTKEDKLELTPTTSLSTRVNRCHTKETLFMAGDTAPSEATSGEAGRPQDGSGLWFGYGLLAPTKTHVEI
Kind of test: Neurokinin receptor binding assay, human NK2 ([3H]-neurokinin A displacement, transfected CHO cell membranes).

Where [3] appears, read: neurokinin receptor binding assay, [3H]-neurokinin A 1.0 nM, CHO membranes, Cheng-Prusoff, read-out: NK2 Ki (binding).

Like-named read-outs stand apart in the source and are kept apart here.

T1 sequence (P25103 whole entry): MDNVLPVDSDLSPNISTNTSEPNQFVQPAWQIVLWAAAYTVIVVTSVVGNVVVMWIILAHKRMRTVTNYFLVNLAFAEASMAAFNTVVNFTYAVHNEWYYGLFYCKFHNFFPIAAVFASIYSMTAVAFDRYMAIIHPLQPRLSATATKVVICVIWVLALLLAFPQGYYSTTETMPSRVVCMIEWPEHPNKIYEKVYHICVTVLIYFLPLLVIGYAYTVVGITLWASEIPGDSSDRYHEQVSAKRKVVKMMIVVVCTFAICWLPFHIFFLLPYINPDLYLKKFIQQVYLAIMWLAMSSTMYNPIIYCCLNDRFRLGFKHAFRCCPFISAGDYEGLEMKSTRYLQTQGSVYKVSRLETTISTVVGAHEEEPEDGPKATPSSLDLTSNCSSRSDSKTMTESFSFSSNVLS

Consider `COc1ccccc1CN(C)C(=O)CC(CCN1CCC(O)(c2ccccc2)CC1)c1ccc(Cl)c(Cl)c1` (stereo not drawn) [β-(3,4-ジクロロフェニル)-4-ヒドロキシ-N-[(2-メトキシフェニル)メチル]-N-メチル-4-フェニル-1-ピペリジンペンタミド], for which the inhibitory constant (Ki) in test [1] stood at 7.5 nM; in test [2] it was 33 nM.

On to `COc1cccc(CN(C)C(=O)CC(CCN2CCC(O)(c3ccccc3)CC2)c2ccc(Cl)c(Cl)c2)c1` (stereo not drawn) [β-(3,4-ジクロロフェニル)-4-ヒドロキシ-N-[(3-メトキシフェニル)メチル]-N-メチル-4-フェニル-1-ピペリジンペンタミド], for which the Ki in test [1] was 12 nM; in test [2] (setting [3]), 215 nM.

In the case of `CN(CCc1ccccc1)C(=O)CC(CCN1CCC(O)(c2ccccc2)CC1)c1ccc(Cl)c(Cl)c1` (stereo not drawn) [β-(3,4-ジクロロフェニル)-4-ヒドロキシ-N-メチル-4-フェニル-N-(2-フェニルエチル)-1-ピペリジンペンタミド], the Ki in test [1] came out at 70 nM; in test [2] it was 46 nM.

For the molecule `CN(Cc1ccccc1)C(=O)CC(CCN1CCC(O)(c2ccccc2)CC1)c1ccc(Cl)c(Cl)c1` (stereo not drawn) [β-(3,4-ジクロロフェニル)-4-ヒドロキシ-N-メチル-4-フェニル-N-(フェニルメチル)-1-ピペリジンペンタミド], the Ki is 6.8 nM in test [1] and 108 nM in test [2] (setting [3]).

Regarding `CN(C(=O)CC(CCN1CCC(O)(c2ccccc2)CC1)c1ccc(Cl)c(Cl)c1)c1ccccc1` (stereo not drawn) [β-(3,4-ジクロロフェニル)-4-ヒドロキシ-N-メチル-N,4-ジフェニル-1-ピペリジンペンタミド], the Ki in test [1] (neurokinin receptor binding assay, [3H]-substance P 0.8 nM, CHO membranes, Cheng-Prusoff, read-out: NK1 Ki (binding)) worked out at 150 nM; in test [2], 5.2 nM.
